According to PubChem BioAssay (NCI):
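Cells were grown in 96-well plates and exposed to each compound for 48 hours at five concentrations; endpoints were interpolated linearly between bracketing concentrations, or set to the highest concentration if not reached. Abbreviation: GI50, concentration required for 50% inhibition of growth. The concentration for full growth arrest is given as TGI.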

How the values were obtained:
Experiment in all cases: DTP human tumour cell line panel, 48 h
[1] = tested on: TK-10 renal
[2] = tested on: NCI-H226 lung
[3] = tested on: K-562 leukemia
[4] = tested on: MOLT-4 leukemia
[5] = tested on: HCC-2998 colon
[6] = tested on: A549 NSCLC
[7] = tested on: LOX IMVI melanoma
[8] = tested on: COLO 205 colon
[9] = tested on: SNB-75 CNS
[10] = tested on: CCRF-CEM leukemia

Row | Compound | TGI [1] [µM] | TGI [2] [µM] | TGI [3] [µM] | TGI [4] [µM] | TGI [5] [µM] | TGI [6] [µM] | TGI [7] [µM] | TGI [8] [µM] | TGI [9] [µM] | TGI [10] [µM] | GI50 [1] [µM] | GI50 [2] [µM] | GI50 [3] [µM] | GI50 [4] [µM] | GI50 [5] [µM] | GI50 [6] [µM] | GI50 [7] [µM] | GI50 [8] [µM] | GI50 [9] [µM] | GI50 [10] [µM]
1 | CCC(C)C(=O)c1c(O)c(C/C=C(\C)CCC=C(C)C)c(O)c2c(C(O)CC)cc(=O)oc12 (stereo not given) | 13.1 | 9.11 | 3.31 | 3.94 | 2.09 | 11.4 | 12.6 | 7.27 | 5.84 | 3.44 |  |  |  |  |  |  |  |  |  | 
2 | CCOC(=O)/C=C(\C)c1ccc(OC)cc1 | > 100 | > 100 |  |  | > 100 | > 100 | > 100 | > 100 | > 100 |  |  |  |  |  |  |  |  |  |  | 
3 | COc1ccc(NC(=O)/C(=C/c2ccc(N(CCC#N)CCC#N)cc2)NC(=O)c2cc([N+](=O)[O-])ccc2Cl)cc1 | > 100 | > 100 | > 100 | > 100 | > 100 | 89.7 | > 100 | > 100 |  | > 100 |  |  |  |  |  |  |  |  |  | 
4 | CC(C)C[P+](c1ccccc1)(c1ccccc1)c1ccccc1 | 66.5 | > 100 | > 100 | > 100 | > 100 | > 100 | > 100 | 15.7 | > 100 | 11.1 |  |  |  |  |  |  |  |  |  | 
5 | COc1ccc(NC(=O)/C(CC2=Nc3ccc([N+](=O)[O-])cc3NC2O)=N\NC(=O)C[N+](C)(C)C)c(OC)c1 (stereo not given) | > 100 | > 100 |  | > 100 | > 100 | > 100 | > 100 | > 100 | > 100 | > 100 |  |  |  |  |  |  |  |  |  | 
6 | CC1(C)N=C(N)N=C(N)N1c1cccc(OCCOc2ccc([N+](=O)[O-])cc2)c1 | > 100 |  | > 100 | > 100 |  | > 100 | > 100 | > 100 |  | > 100 |  |  |  |  |  |  |  |  |  | 
7 | N#Cc1c(NC(=S)NC(=O)c2ccccc2)nc2c(c1-c1ccccc1)CCCC2 | > 100 |  | > 100 | > 100 |  | > 100 | > 100 | > 100 | 41.5 | > 100 |  |  |  |  |  |  |  |  |  | 
8 | COc1cc(C2c3cc4c(cc3[C@@H](Nc3cccc(C(C)=O)c3)C3COC(=O)[C@H]23)OCO4)cc(OC)c1O (stereo not given in full) |  | 1.99 | 6.1 | 0.129 | 3.23 | 1.99 | 4.38 | 5.05 |  | 0.231 |  |  |  |  |  |  |  |  |  | 
9 | ClCc1c(Cl)c(Cl)c(Cl)c(CCl)c1Cl | 2.89 | 7.3 | 4.37 | 5.86 | 3.45 | 16.3 | 3.13 | 3.33 | 7.73 | 3.28 | 1.56 | 2.53 | 1.8 | 2.41 | 1.78 | 4.8 | 1.46 | 1.83 | 2.15 | 0.841
10 | NCc1ccc(C(=O)O)cc1 | > 100 | > 100 | > 100 | > 100 | > 100 | > 100 | > 100 |  |  |  |  |  |  |  |  |  |  |  |  | 
11 | CCO/N=[N+](\[O-])N(CC)CC | > 100 | > 100 | > 100 | > 100 | > 100 | > 100 | > 100 |  |  | > 100 |  |  |  |  |  |  |  |  |  | 
12 | COc1ccc(-c2cc(N3CCN(c4ccccc4)CC3)c(C#N)c(=O)o2)cc1 | 58 | 9.94 | > 100 | > 100 | > 100 | > 100 | > 100 | > 100 | 31.7 | > 100 |  |  |  |  |  |  |  |  |  | 
13 | Cc1nc2ccccc2c(=O)[nH]1 | > 100 | > 100 | > 100 | > 100 | > 100 | > 100 | > 100 | > 100 | > 100 | > 100 |  |  |  |  |  |  |  |  |  | 
14 | C#CC[C@@H]1C[C@]2(C)[C@H]3CC=C4[C@H]5CC(C)(C)CC[C@]5(C(=O)NCCCCN)CC[C@@]4(C)[C@]3(C)CC[C@H]2C(C)(C)[C@H]1OC(C)=O |  |  | 6.16 |  |  | 3.27 |  | 3.32 | 2.69 | 4.55 |  |  | 1.91 |  |  | 1.66 |  | 1.72 | 1.38 | 1.93
15 | Cn1c(-c2ccc(/C=N\N3CCN(/N=C/c4ccc(-c5c[n+]6ccccc6n5C)cc4)CC3)cc2)c[n+]2ccccc12 | > 100 | > 100 |  | > 100 |  | > 100 | > 100 | > 100 | > 100 | > 100 |  |  |  |  |  |  |  |  |  | 
16 | CC[n+]1c(/C=C/c2ccc(N(CCCl)CCCl)cc2)ccc2cc(NC(=O)/C=C/c3ccccc3)ccc21 | 24.5 | 2.89 | 0.235 | 1.69 | 1.37 | 6.09 | 1.51 | 0.222 | 1.05 | 0.831 |  |  |  |  |  |  |  |  |  | 
17 | COc1ccc(CC(C)N)cc1 (stereo not given) | > 100 | > 100 | > 100 | > 100 | > 100 | > 100 | > 100 | > 100 | > 100 | > 100 |  |  |  |  |  |  |  |  |  | 
18 | Brc1ccccc1-c1ncc(-c2ccccc2)o1 | > 100 |  | > 100 | 49.6 | 80.4 | > 100 | 34.1 | 39.5 | 59.7 | 54.7 |  |  |  |  |  |  |  |  |  | 
